Results: patent US20150105252A1, “SUBSTITUTED PYRAZOLES AS HERBICIDES” (E I DU PONT DE NEMOURS AND COMPANY, priority 2013, published 2015)

Tests used:
crabgrass, large [1] = assay: Test A preemergence; type: in vivo, Digitaria sanguinalis; details: preemergence; for Crabgrass, Large plant response rating (0 to 100 scale): 125 g ai/ha, visual injury approx. 10 days after treatment; for Crabgrass, Large plant response rating: 500 g ai/ha, visual injury after approx. 10 days, 0 to 100 scale (0 no effect, 100 complete control)
In short: (§1)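 After sowing in a sand–loam mix, pots received compound preemergence by directed soil spray, or postemergence once plants reached the one- to two-leaf stage (2–10 cm). Formulation contained surfactant in a non-phytotoxic solvent. Injury was scored visually after ~10 greenhouse days, 0–100 scale.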

morningglory [2] = assay: Test A preemergence; type: in vivo, Ipomoea spp.; details: preemergence; for Morningglory plant response rating (0 to 100 scale): 125 g ai/ha, visual injury approx. 10 days after treatment; for Morningglory plant response rating: 500 g ai/ha, visual injury after approx. 10 days, 0 to 100 scale (0 no effect, 100 complete control)
In short: as §1

wheat = assay: Test A preemergence; type: in vivo, Triticum aestivum; details: preemergence; for Wheat plant response rating (0 to 100 scale): 125 g ai/ha, visual injury approx. 10 days after treatment; for Wheat plant response rating: 500 g ai/ha, visual injury after approx. 10 days, 0 to 100 scale (0 no effect, 100 complete control)
In short: as §1

barnyardgrass = assay: Test A postemergence; type: in vivo, Echinochloa crus-galli
In short: as §1

crabgrass, large [3] = assay: Test A postemergence; type: in vivo, Digitaria sanguinalis
In short: as §1

pigweed = assay: Test A postemergence; type: in vivo, Amaranthus retroflexus; details: Postemergence
In short: as §1

velvetleaf = assay: Test A postemergence; type: in vivo, Abutilon theophrasti; details: Postemergence
In short: as §1

corn = assay: Test A postemergence; type: in vivo, Zea mays
In short: as §1

rice = assay: Test B flood; type: in vivo, Oryza sativa; details: 250 g ai/ha, visual rating on 0 to 100 scale (0 no effect, 100 complete control), 13 to 15 days
In short: (§2)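 Paddy-water application: seedlings at 2-leaf stage, flood depth 3 cm maintained for the test duration. Evaluation after 13–15 days in the greenhouse by eye relative to controls; 0–100 scale.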

sedge, umbrella = assay: Test B flood; type: in vivo, Cyperus difformis; details: 250 g ai/ha, visual rating on 0 to 100 scale (0 no effect, 100 complete control), 13 to 15 days
In short: as §2

ducksalad = assay: Test B flood; type: in vivo, Heteranthera limosa; details: 250 g ai/ha, visual rating on 0 to 100 scale (0 no effect, 100 complete control), 13 to 15 days
In short: as §2

blackgrass = assay: Test C preemergence; type: in vivo, Alopecurus myosuroides; details: preemergence; for Plant response rating, Blackgrass: 125 g ai/ha, scale 0 to 100, 0 = no effect, 100 = complete control
In short: (§3)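 Herbicidal effect is expressed as percent visual control (0–100) judged against untreated plants 13 to 15 days after treatment in the greenhouse. Preemergence pots contained seeds in a soil–sand blend; postemergence plants, 2–18 cm tall, grew in peat-based planting medium.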

morningglory [4] = assay: Test C preemergence; type: in vivo, Ipomoea coccinea
In short: as §3

nutsedge, yellow = assay: Test C preemergence; type: in vivo, Cyperus esculentus
In short: as §3

ragweed = assay: Test C preemergence; type: in vivo, Ambrosia elation
In short: as §3

[5] = Postemergence, 500 g ai/ha, 0 to 100 scale (0 no effect, 100 complete control)
[6] = postemergence, 125 g ai/ha, about 10 days, visual rating on 0 to 100 scale (0 no effect, 100 complete control)
[7] = 125 g ai/ha, 0 to 100 scale, 0 no effect, 100 complete control
[8] = 500 g ai/ha, 0 to 100 scale (0 no effect, 100 complete control)
[9] = 31 g ai/ha, visual rating, scale 0 to 100 (0 no effect, 100 complete control), 13 to 15 days
[10] = 62 g ai/ha, scale 0 to 100 (0 no effect, 100 complete control), 13 to 15 days
[11] = 250 g ai/ha, scale 0 to 100, 0 is no effect, 100 is complete control
[12] = preemergence, 31 g ai/ha, visual rating, scale 0 to 100 (0 no effect, 100 complete control), 13 to 15 days
[13] = preemergence, 62 g ai/ha, scale 0 to 100 (0 no effect, 100 complete control), 13 to 15 days
[14] = preemergence, 125 g ai/ha, 13 to 15 days, scale 0 to 100, 0 = no effect, 100 = complete control
[15] = preemergence, 250 g ai/ha, scale 0 to 100, 0 is no effect, 100 is complete control
[16] = Postemergence, 125 g ai/ha, 0 to 100 scale, 0 no effect, 100 complete control
[17] = Preemergence, rate head not shown (block before 16 g ai/ha), scale 0 to 100

Row | SMILES | Crabgrass, Large plant response rating (0 to 100 scale) (crabgrass, large [1]) | Crabgrass, Large plant response rating (crabgrass, large [1]) | Morningglory plant response rating (0 to 100 scale) (morningglory [2]) | Wheat plant response rating (0 to 100 scale) (wheat) | Barnyardgrass plant response rating (barnyardgrass; [5]) | Crabgrass, Large plant response rating (crabgrass, large [3]; [5]) | Pigweed plant response rating (pigweed; [7]) | Pigweed plant response rating (pigweed; [8]) | Velvetleaf plant response rating (velvetleaf; [7]) | Velvetleaf plant response rating (velvetleaf; [8]) | Corn plant response rating (corn; [5]) | Plant response rating, Rice (rice) | Plant response rating, Sedge, Umbrella (sedge, umbrella) | Plant response rating, Ducksalad (ducksalad) | Blackgrass plant response rating (blackgrass; [9]) | Blackgrass plant response rating (blackgrass; [10]) | Plant response rating, Blackgrass (blackgrass; 13 to 15 days) | Blackgrass plant response rating (blackgrass; [11]) | Morningglory plant response rating (morningglory [4]; [13]) | Plant response rating, Morningglory (morningglory [4]; [14]) | further results
1 | CCc1cc(C(=O)NCC2CC2)nn1Cc1ccnc(C(F)(F)F)c1 [Compound 199] | 100 | 100 | 90 | 90 | 90 | 90 | 100 | 100 | 80 | 90 | 90 | 45 | 90 | 90 | 90 | 90 | 90 | 90 | 100 | 98 | Morningglory plant response rating (morningglory [2]): 100; Wheat plant response rating (wheat): 100; Barnyardgrass plant response rating (barnyardgrass; [6]): 70; Crabgrass, Large plant response rating (crabgrass, large [3]; [6]): 90; Corn plant response rating (corn; [6]): 50; Morningglory plant response rating (morningglory [4]; [12]): 60; Morningglory plant response rating (morningglory [4]; [15]): 100; Nutsedge, Yellow plant response rating (nutsedge, yellow; [12]): 30; Nutsedge, Yellow plant response rating (nutsedge, yellow; [13]): 45; Plant response rating, Nutsedge, Yellow (nutsedge, yellow; [14]): 80; Nutsedge, Yellow plant response rating (nutsedge, yellow; [15]): 85; Ragweed plant response rating (ragweed; [12]): 30; Ragweed plant response rating (ragweed; [13]): 85; Plant response rating, Ragweed (ragweed; [14]): 95; Ragweed plant response rating (ragweed; [15]): 95
2 | CCc1cc(C(=O)NC2CC2)nn1Cc1ccnc(OCC(F)(F)F)c1 [Compound 200] | 100 | 100 | 40 | 0 | 100 | 100 | 100 | 100 | 80 | 90 | 100 | 0 | 90 | 80 | 50 | 80 | 90 | 90 | 95 | 98 | Morningglory plant response rating (morningglory [2]): 100; Wheat plant response rating (wheat): 100; Barnyardgrass plant response rating (barnyardgrass; [6]): 90; Crabgrass, Large plant response rating (crabgrass, large [3]; [6]): 100; Corn plant response rating (corn; [6]): 80; Morningglory plant response rating (morningglory [4]; [12]): 55; Morningglory plant response rating (morningglory [4]; [15]): 100; Nutsedge, Yellow plant response rating (nutsedge, yellow; [12]): 20; Nutsedge, Yellow plant response rating (nutsedge, yellow; [13]): 25; Plant response rating, Nutsedge, Yellow (nutsedge, yellow; [14]): 40; Nutsedge, Yellow plant response rating (nutsedge, yellow; [15]): 60; Ragweed plant response rating (ragweed; [12]): 5; Ragweed plant response rating (ragweed; [13]): 35; Plant response rating, Ragweed (ragweed; [14]): 70; Ragweed plant response rating (ragweed; [15]): 85
3 | CCc1cc(C(=O)NC2CC2)nn1Cc1cc(C(F)(F)C(F)(F)F)nn1C [Compound 226] | 100 | 100 | 100 | 40 | 90 | 90 | 100 | 100 | 50 | 90 | 80 | 30 | 90 | 90 | 60 | 85 | 70 | 90 | 85 | 100 | Barnyardgrass plant response rating (barnyardgrass; [16]): 60; Crabgrass, Large plant response rating (crabgrass, large [3]; [16]): 70; Corn plant response rating (corn; [16]): 50; Plant response rating, Morningglory (morningglory [4]; [17]): 85; Morningglory plant response rating (morningglory [4]; [15]): 100; Plant response rating, Nutsedge, Yellow (nutsedge, yellow; [17]): 0; Nutsedge, Yellow plant response rating (nutsedge, yellow; [13]): 5; Plant response rating, Nutsedge, Yellow (nutsedge, yellow; [14]): 5; Nutsedge, Yellow plant response rating (nutsedge, yellow; [15]): 20; Plant response rating, Ragweed (ragweed; [17]): 90; Ragweed plant response rating (ragweed; [13]): 100; Plant response rating, Ragweed (ragweed; [14]): 95; Ragweed plant response rating (ragweed; [15]): 98
